Columns and labels:
[1] = General toxicity (mortality, body weight); format: in vivo, nude mice; details: for Final BW: mean±s.e.
Procedure: Experiment 1 was started when tumours had grown to approximately 40 mm^3 in volume. Animals were randomly divided into three treatment groups: group 1(10 mice), control, which received vehicle solution; group 2 (10 mice), injected with cytotoxic radical AN-201; group 3 (11 mice), given cytotoxic BN analogue AN-215. Cytotoxic compounds were injected through the jugular vein at a dose of 150 nmol kg^−1 of body weight (BW) on days 1, 8, 15 and 22. Tumour volume (length×width×height×0.5236) and BW were measured twice a week. The experiment was terminated on day 29. […] Tumours were excised and weighed. Tumour specimens were snap-frozen and stored at −70°C until extraction of RNA for reverse transcription-polymerase chain reaction (RT–PCR). Tumour volume doubling time was calculated between day 1 and 29 using the formula: […]
Experiment 2 was started when U-87MG tumours had grown to 70–84 mm^3 in volume. The animals were divided into the following treatment groups: group 1 (10 mice), control, vehicle solution; group 2 (10 mice), analogue AN-215; group 3 (five mice), unconjugated mixture of the cytotoxic radical AN-201 and BN antagonist RC-3095. All compounds were injected i.v. at 150 nmol kg^−1 of BW on days 1, 10, and 17. In addition, one group of tumour-bearing mice received an i.v. injection of 200 μg of BN antagonist RC-3095 15 min before each administration of AN-215 at a dose of 150 nmol kg^−1 of BW on days 1, 10 and 17 as in the case of group 2. The experiment was terminated on day 20 as described above.
(§1) General toxicity was evaluated on the basis of mortality rate and changes in BW. Toxicity to BN receptor-positive organs was assessed by measuring gastrin release in response to GRP stimulation ([Plonowski et al, 2000]). At the end of experiment 1, blood samples were collected 5 min after i.v. injection of 2 μg of GRP(14-27) dissolved in 100 μl of 5% mannitol. Serum gastrin concentrations were measured by double-antibody radioimmunoassay with a kit provided by ICN Pharmaceuticals Diagnostic Division (Orangeburg, NY, USA). The interassay variation was 10.6%, and the intraassay variation was 6%.

[2] = test system: BN receptor-positive organs; assay: GRP-stimulated serum gastrin release; format: in vivo, nude mice; details: for Effect on GRP-stimulated gastrin release: experiment 1, after i.v. stimulation with GRP(14-27); for GRP(14-27)-evoked serum gastrin level: experiment 1 end, 5 min after i.v. 2 μg GRP(14-27), radioimmunoassay, control 223.0±17.9, mean±s.e.
Procedure: as §1, with “At the end of experiment 1, blood samples were collected 5 min after i.v. injection of 2 μg of GRP(14-27) dissolved in 100 μl of 5% mannitol.” left out

[3] = test system: U-87MG human glioblastomas in nude mice; assay: Histology of U-87MG tumours (experiment 1); format: in vivo, human tumour in nude mice; details: for Extent of necrosis vs control / % area of necrosis / Ratio of apoptotic to mitotic indices / Apoptotic index / Mitotic index: experiment 1 tumours; for % area of necrosis: 150 nmol kg^-1 i.v. x4, control 60.0±5.8; for % area of necrosis / Ratio of apoptotic to mitotic indices / Apoptotic index / Mitotic index / Number of AgNORs per cell: mean±s.e.; for Ratio of apoptotic to mitotic indices: control 0.38±0.06; for Apoptotic index / Mitotic index: per 1000 cells; for Apoptotic index: control 5.9±0.7; for Mitotic index: control 16.6±1.4; for Number of AgNORs per cell: silver staining, 50 cells per tumour, control 4.93±0.18
Source text: Samples of tumour tissues were fixed in 10% buffered formalin. The specimens were embedded in Paraplast (Oxford Labware, St. Louis, MO, USA). Six μm thick sections were cut and stained with haematoxylin-eosin. Mitotic and apoptotic cells were counted in nine standard high power microscopic fields containing an average of 330 cells, and their numbers per 1000 cells were accepted as the mitotic and apoptotic indices, respectively. To eliminate errors caused by variances in thickness of slides and cellularity of areas investigated, the ratio of apoptotic to mitotic indices was calculated in each tumour. For the determination of the extent of necrosis in tumours, the crossing points of a microscope ocular net that coincided with necrosis in the slide made at the largest cross-section of each tumour were counted. The ratio of these points to the number of all points above the tumour represented the percentage area of necrosis. […] NORs are parts of DNA closely associated with nucleoli and encode for ribosomal RNA. They are also associated with argyrophylic proteins and thus can be visualised by silver staining. The amount of AgNORs is a good indicator of cell proliferation ([van Diest et al, 1998]). The silver-stained black dots in 50 cells of each tumour were counted and the AgNOR number per cell was calculated. The data were evaluated by one way analysis of variance (ANOVA) and the treated groups compared to the control by Dunnett's test.

[4] = set-up: method as in 2 sources, one per row (each row's own in cited_ref): ref Nagy et al, 1997 ||| ref not printed in the sentence (AN-201: Nagy et al, 1996); details: cited from earlier work
Source text: Current treatment options for malignant gliomas, including surgery, radiation, and chemotherapy, are of limited effectiveness, and novel therapeutic modalities must be explored. Targeting of antineoplastic agents to cancer cells by linking them to a ligand with high affinity for tumour cells should improve tumour growth inhibition and decrease peripheral toxicity ([Schally and Nagy, 1999]). The presence of high affinity receptors for bombesin (BN)-like peptides on a wide variety of tumours prompted us to employ some of our powerful BN/gastrin releasing peptide (GRP) antagonists as carrier mole ... || Recently, we developed a series of targeted cytotoxic conjugates based on analogues of peptide hormones such as luteinizing hormone-releasing hormone(LH-RH), somatostatin and BN/GRP, for which high affinity receptors are expressed on a variety of tumours ([Schally and Nagy, 1999]; [Nagy and Schally, 2001]).

[5] = cited from earlier work; for BW change: accompanying WBC decrease, nude mice bearing PC-3; for Reduction in WBC count: after the final injection, nude mice bearing PC-3 human prostate cancers
Procedure: In our previous study ([Plonowski et al, 2000]) we reported that after the final injection of AN-215, AN-201 or the mixture of AN-201 and […] there was an approximate 50% reduction in WBC count in nude mice bearing PC-3 human prostate cancers. […] In the present study no measurements of WBC were carried out. Instead, the assessment of toxicity was based on changes in BW and mortality which indicated, in both experiments, that targeted cytotoxic BN analogue AN-215 is not toxic (Table 2). In experiment 1, two of 10 animals (20%) ...

[6] = experiment 1, 150 nmol kg^-1 i.v. days 1, 8, 15, 22
[7] = experiment 1, 150 nmol kg^-1 i.v. days 1, 8, 15, 22, control 0/10
[8] = experiment 1, day 29, control 29.3±1.0

Row | Molecule | Mortality, % of animals [1, 6] [%] | Mortality (number of dead animals/number of total) [1, 7] | Final BW [1, 8] [g] | Effect on GRP-stimulated gastrin release [2] | GRP(14-27)-evoked serum gastrin level [2] [pg/mL] | Extent of necrosis vs control [3] | % area of necrosis [3] [%] | Ratio of apoptotic to mitotic indices [3] | Apoptotic index [3] | Mitotic index [3] | Number of AgNORs per cell [3] | BW change ([5]; ref Plonowski et al, 2000) | Reduction in WBC count ([5]; ref Plonowski et al, 2000) [%] | further results
1 | COc1cccc2c1C(=O)c1c(O)c3c(c(O)c1C2=O)C[C@@](O)(C(=O)CO)C[C@@H]3O[C@H]1C[C@H](N2C=CCC2)[C@H](O)[C@H](C)O1 [AN-201, 2-pyrrolino-doxorubicin] | 20 | 2/10 | 25.5 ± 0.8 | Neither AN-215 nor AN-201 affected GRP-stimulated gastrin release | 251.5 ± 22.1 | only a slight and not significant change in necrosis | 69.6±7.0 | 0.36±0.04 | 5.3±0.6 | 15.2±1.5 | 4.31±0.09 | transient decrease in BW | ~50 | Potency relative to DOX (fold) ([4]; in vitro, ref not printed in the sentence (AN-201: Nagy et al, 1996)): 1000 times
2 | Gln-Trp-Ala-Val-Gly-His-Leu-ψ(CH2-NH)-Leu-NH2 [AN-215] | 9 | 1/11 | 25.4 ± 0.6 | Neither AN-215 nor AN-201 affected GRP-stimulated gastrin release | 257.9 ± 11.6 | significantly larger than in the controls | 81.7±6.7 | 0.85±0.25 | 6.2±0.8 | 10.9±2.2 | 4.16±0.12 | transient decrease in BW | ~50 | Toxicity by BW and mortality ([1]; both experiments, 150 nmol kg^-1 i.v.): not toxic; Final BW, % of control ([1]; experiment 1, day 29): 87%; Mortality (number of dead animals/number of total) ([1]; experiment 2, 150 nmol kg^-1 i.v. days 1, 10, 17, control 1/10): 0/10; Toxicity-related deaths ([1]; experiment 2, AN-215 150 nmol kg^-1 without pretreatment): no toxicity-related deaths; Mortality, % of animals, after RC-3095 pretreatment ([1]; experiment 2, RC-3095 200 μg i.v. about 15 min before AN-215): 11%; Final BW, % of control ([1]; experiment 2, day 20): 90%; Final BW ([1]; experiment 2, day 20, control 30.2±0.8): 27.3 ± 0.9 g; Damage to gastrointestinal cells ([2]; GRP-stimulated gastric secretion, this study and also ref Plonowski et al, 2000): no specific damage to the gastrointestinal cells; Antiproliferative effect ([4]; ref Nagy et al, 1997): retains the antiproliferative effect of its cytotoxic moiety; Tolerance with carboxylesterase inhibited ([5]; nude mice, ref Nagy et al, 2000, Plonowski et al): significantly higher tolerance; Efficacy with suppressed esterase activity ([5]; nude mice, ref Plonowski et al, 2000): highly efficacious

From article PMC2375353, “Effective treatment of experimental U-87MG human glioblastoma in nude mice with a targeted cytotoxic bombesin analogue, AN-215” (British Journal of Cancer, 2002)
